Source: PMC11530130, “Peripherally restricted PICK1 inhibitor mPD5 ameliorates pain behaviors in murine inflammatory and neuropathic pain models” (JCI Insight, 2024)
“And” between values parts separate entries of the source, which are not always exact repeats. Equal values may be shown once.

Tests used:
[1] = Mass spectrometry biodistribution (plasma, CSF, spinal cord, brain); type: in vivo, mouse
Description: K2 tubes at 5 min, 30 min, 1 hour, 5 hours, 12 hours, 24 hours, and 48 hours and centrifuged (app 4 ℃, 3200 g, 10 min) for collection of plasma. Plasma was transferred to 96 well plates and quick-frozen over dry ice and kept at -60 ℃ until LC-MS/MS analysis. For LC-MS/MS analysis plasma with 0.25% Triton X100 in 50% MeOH/water (6 µL) was quenched with 160 µL of IS1 (internal standard in MeOH (Labetalol & tolbutamide & Verapamil & dexamethasone & glyburide & Celecoxib 100 ng/mL for each)) and the mixture was vortexed for 10 min at 800 rpm and centrifuged for 15 min at 3220 × g at 4 ℃. […] Plasma half-lives were determined from three points in the elimination phase. In a separate experiment, biodistribution was assessed (plasma, CSF, spinal cord, whole brain) at two hours after single dose of 10 µmol/kg or one hour after last injection in the repeated administration paradigm (10 µmol/kg followed by four s.c. administrations of 2 µmol/kg with one hour between). […] Plasma, CSF, and tissue samples (kept at 4 ℃) were processed and analysed as described above.
Concentration 10 µmol/kg: Wild type mice were habituated to the experimental room for a minimum of 60 min before initiation of the experiment. […] A video camera placed above the open field recorded the animals’ behaviour and Ethovision XT 13 (Noldus) was used to track the distance travelled by the […]

[2] = test system: mice, spared nerve injury (SNI) model; assay: SNI model, von Frey, repeated s.c. administration on 2 consecutive days; type: in vivo, mouse; design: von Frey threshold, Fig 7A, individual mice: unit not given here
Source text: Repeated and sustained administration of mPD5 in the SNI model.
For the experiment with repeated administration of mPD5 (Figure 7A), male C57BL/6J (Janvier, France) mice underwent surgery leading to partial nerve injury, by cutting the peroneal and tibial nerves, producing hypersensitivity of the remaining sural nerve (SNI) as described in the “Induction of neuropathic pain (SNI model).”-section. On day 21 after surgery, hyperalgesia was confirmed by using von Frey filaments to induce mechanically evoked hypersensitivity and measure paw withdrawal threshold of the animals as described in the “Mechanically-evoked pain (von Frey).”-section. On the same day, mice were injected s.c. with 2, 10, or 50 μmol/kg mPD5 (10 μL/g) and evoked pain was tested again with the use of von Frey filaments at 1 and 5 hours after injection. 24 hours after the first injection, mice were injected s.c. with 2, 10, or 50 μmol/kg mPD5 (10 μL/g) again and evoked pain was tested with the use of von Frey filaments at 1, 5, and 24 hours after the second injection. […]

With `CCCCCCCCCCCCCC(=O)N(CCOCCOCCC(=O)N[C@@H](Cc1c[nH]cn1)C(=O)N[C@@H](Cc1c[nH]c2ccccc12)C(=O)N[C@@H](CC(C)C)C(=O)N[C@@H](CCCCN)C(=O)N[C@H](C(=O)O)C(C)C)CCOCCOCCC(=O)N[C@@H](Cc1c[nH]cn1)C(=O)N[C@@H](Cc1c[nH]c2ccccc12)C(=O)N[C@@H](CC(C)C)C(=O)N[C@@H](CCCCN)C(=O)N[C@H](C(=O)O)C(C)C` [mPD5, myristoyl-NPEG4-(HWLKV)2] the level at 1 h ([1]; C57BL/6NRj, mouse, plasma, sc, 10 umol/kg, 1 hour after s.c. 10 μmol/kg, LLOQ = 2 ng/mL, n = 3) was 3280 ± 615 ng/mL, the “detection in CSF, spinal cord, and brain tissue by mass spectrometry” value ([1]; after s.c. injection in mice) was “did not detect” and the “von Frey threshold, contralateral paw, Fig 7A, individual mice” value (shortened to “von Frey threshold, contralateral paw”) ([2]; A_contra, hr 5 day2) was 1.4 and 1 (3×). The “von Frey threshold, contralateral paw” value ([2]; A_contra, hr23) was 1 (3×) and 1.4 (4×) and 2, the “von Frey threshold, contralateral paw” value ([2]; A_contra, hr1 day 1) was 1.4 (6×) and 1 and 2 and the “von Frey threshold, contralateral paw” value ([2]; A_contra, hr 1 day 2) was 1 (5×) and 1.4 (2×) and 2. The “von Frey threshold, contralateral paw” value ([2]; A_contra, hr 5 day 1) was 1.4 (6×) and 2 and 1, the “von Frey threshold, contralateral paw” value ([2]; B_contra, hr23) was 1.4 (4×) and 1 (3×) and 2 and the “von Frey threshold, contralateral paw” value ([2]; B_contra, hr1 day 1) was 1.4 (5×) and 1 (3×). The “von Frey threshold, contralateral paw” value ([2]; B_contra, hr 1 day 2) was 1.4 (5×) and 1 (3×), the “von Frey threshold, contralateral paw” value ([2]; B_contra, hr 5 day 1) was 1.4 and 1 (2×) and 2 (5×) and the “von Frey threshold, contralateral paw” value ([2]; C_comtra, hr23) was 2 and 1.4 (5×) and 1 (2×). For the same molecule, the “von Frey threshold, contralateral paw” value ([2]; C_comtra, hr1 day 1) was 3 and 2 (2×) and 1 (2×) and 1.4 (3×), the “von Frey threshold, contralateral paw” value ([2]; C_comtra, hr 1 day 2) was 1 (2×) and 1.4 (4×) and 2 (2×) and the “von Frey threshold, contralateral paw” value ([2]; C_comtra, hr 5 day 1) was 2 and 1 (4×) and 1.4 (3×). For the same molecule, the “relief of mechanical hypersensitivity” value ([2]; SNI 3 weeks after surgery, first day, s.c. 50 μmol/kg only, 5 hours) was “significant effect at 5 hours”, the “relief of mechanical hypersensitivity” value ([2]; SNI 3 weeks after surgery, first day, s.c. 2, 10, 50 μmol/kg (all concentrations), 1 hour) was “significant effects at 1 hour” and the “relief of mechanical hypersensitivity” value ([2]; SNI, next day (second injection), only 10 and 50 μmol/kg, 1 and 5 hours after administration) was “significant pain relief”. The development of tolerance ([2]; SNI, s.c. 2, 10, 50 μmol/kg on 2 consecutive days) was “do not indicate immediate development of tolerance”, the “von Frey threshold, Fig 7A, individual mice” value (“von Frey threshold, Fig 7A” for short) ([2]; group 2, hr 5 day2) was 0.07 and 0.16 (2×) and the “von Frey threshold, Fig 7A” value ([2]; group 2, hr23) was 0.07 (5×) and 0.16 (3×). For the same molecule, the “von Frey threshold, Fig 7A” value ([2]; group 2, hr1 day 1) was 0.16 and 1 (2×) and 0.6 (2×) and 1.4 and 0.4 (2×), the “von Frey threshold, Fig 7A” value ([2]; group 2, hr 1 day 2) was 0.16 (3×) and 1 and 0.6 (3×) and 0.4 and the “von Frey threshold, Fig 7A” value ([2]; group 2, hr 5 day 1) was 0.07 (2×) and 0.4 (3×) and 0.16 (2×) and 0.6. For the same molecule, the “von Frey threshold, Fig 7A” value ([2]; group 10, hr 5 day2) was 1, the “von Frey threshold, Fig 7A” value ([2]; group 10, hr23) was 0.16 (3×) and 0.4 (3×) and 0.07 (2×) and the “von Frey threshold, Fig 7A” value ([2]; group 10, hr1 day 1) was 1 (3×) and 2 (2×) and 0.4 and 1.4 and 0.6. For the same molecule, the “von Frey threshold, Fig 7A” value ([2]; group 10, hr 1 day 2) was 1 (3×) and 2 (2×) and 0.4 (2×) and 1.4, the “von Frey threshold, Fig 7A” value ([2]; group 10, hr 5 day 1) was 0.16 and 2 and 1 (2×) and 0.07 and 0.4 (3×) and the “von Frey threshold, Fig 7A” value ([2]; group 50, hr23) was 0.16 (5×) and 0.07 (3×). The “von Frey threshold, Fig 7A” value ([2]; group 50, hr1 day 1) was 1.4 (5×) and 1 and 0.6 and 0.16, the “von Frey threshold, Fig 7A” value ([2]; group 50, hr 1 day 2) was 1 (4×) and 0.6 and 1.4 (2×) and 0.4 and the “von Frey threshold, Fig 7A” value ([2]; group 50, hr 5 day 1) was 0.6 (3×) and 1 and 0.4 (2×) and 0.16 (2×).
